According to patent US8003695B2 (Chroma Therapeutics Ltd., priority 2006, dated 2011):
pIC50: −log10 of the molar value.

Tests used:
IKBKB (IKKβ) = molecular target: T1, IKBKB (IKKβ) (Homo sapiens, UniProt O14920); experiment: IKKβ Enzyme Assay (Z'-LYTE, Invitrogen); format: biochemical; settings: ATP at or close to Km; read-out: Inhibitor activity versus IKKβ
T1 construct: purchased Invitrogen (Paisley, UK)
T1 sequence (O14920 1-756): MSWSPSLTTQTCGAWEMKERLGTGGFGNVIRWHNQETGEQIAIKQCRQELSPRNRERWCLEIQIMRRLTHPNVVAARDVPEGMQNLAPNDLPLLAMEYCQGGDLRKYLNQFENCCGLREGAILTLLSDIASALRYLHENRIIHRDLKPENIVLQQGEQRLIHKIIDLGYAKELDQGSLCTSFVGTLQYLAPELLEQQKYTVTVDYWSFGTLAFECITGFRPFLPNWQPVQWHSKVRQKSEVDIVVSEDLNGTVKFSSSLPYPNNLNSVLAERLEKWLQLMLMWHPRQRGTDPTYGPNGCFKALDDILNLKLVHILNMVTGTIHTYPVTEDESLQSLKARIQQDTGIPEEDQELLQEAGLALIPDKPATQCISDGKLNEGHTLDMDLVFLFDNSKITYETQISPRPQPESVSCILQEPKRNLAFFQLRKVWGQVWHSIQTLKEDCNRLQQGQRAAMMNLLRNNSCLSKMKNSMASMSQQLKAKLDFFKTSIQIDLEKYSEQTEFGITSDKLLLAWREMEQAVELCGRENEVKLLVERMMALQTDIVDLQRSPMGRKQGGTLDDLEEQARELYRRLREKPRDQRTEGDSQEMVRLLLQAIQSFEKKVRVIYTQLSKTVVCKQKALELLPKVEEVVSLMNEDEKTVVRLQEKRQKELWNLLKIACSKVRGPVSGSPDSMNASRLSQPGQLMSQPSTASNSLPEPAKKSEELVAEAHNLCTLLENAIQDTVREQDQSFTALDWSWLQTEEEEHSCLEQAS
Method: The ability of compounds to inhibit IKKβ kinase activity was measured in an assay performed by Invitrogen (Paisley, UK). The Z′-LYTE™ biochemical assay employs a fluorescence-based, coupled-enzyme format and is based on the differential sensitivity of phosphorylated and non-phosphorylated peptides to proteolytic cleavage. The peptide substrate is labelled with two fluorophores—one at each end—that make up a FRET pair. In the primary reaction, the kinase transfers the gamma-phosphate of ATP to a single serine or threonine residue in a synthetic FRET-peptide. In the secondary reaction, a site-specific protease recognizes and cleaves non-phosphorylated FRET-peptides. Phosphorylation of FRET-peptides suppresses cleavage by the Development Reagent. Cleavage disrupts FRET between the donor (i.e., coumarin) and acceptor (i.e. fluorescein) fluorophores on the FRET-peptide, whereas uncleaved, phosphorylated FRET-peptides maintain FRET. A […] method, which calculates the ratio (the Emission Ratio) of donor emission to acceptor emission after excitation of the donor fluorophore at 400 nm, is used to quantitate reaction progress.
The final 10 μL Kinase Reaction consists of 0.9-8.0 ng IKBKB (IKKβ), 2 μM Ser/Thr 05 Peptide and ATP in 50 mM HEPES pH 7.5, 0.01% BRIJ-35, 10 mM MgCl2, 1 mM EGTA. The assay is performed at an ATP concentration at, or close to the Km. After the 60 minute Kinase Reaction incubation at room temperature, 5 μL of a 1:128 dilution of Development Reagent is added. The assay plate is incubated for a further 60 minutes at room temperature and read on a fluorescence plate reader.
Duplicate data points are generated from a ⅓ log dilution series of a stock solution of test compound in DMSO. Nine dilutions steps are made from a top concentration of 10 μM, and a ‘no compound’ blank is included. Data is collected and analysed using XLfit software from IDBS. The dose response curve is curve fitted to model number 205 (sigmoidal dose-response model). From the curve generated, the concentration giving 50% inhibition is determined and reported.

THP-1 cells = experiment: LPS-Stimulation of THP-1 Cells, TNF-α release; format: cell-based; settings: Homo sapiens, LPS 1 μg/ml, 6 hrs, read-out: Inhibitor activity versus THP-1 TNFα release
Method: LPS-Stimulation of THP-1 Cells
THP-1 cells were plated in 100 μl at a density of 4×10^4 cells/well in V-bottomed 96 well tissue culture treated plates and incubated at 37° C. in 5% CO2 for 16 hrs. 2 hrs after the addition of the inhibitor in 100 μl of tissue culture media, the cells were stimulated with LPS (E. coli strain 005:85, Sigma) at a final concentration of 1 μg/ml and incubated at 37° C. in 5% CO2 for 6 hrs. TNF-α levels were measured from cell-free supernatants by sandwich ELISA (R&D Systems #QTA00B)

human whole blood = experiment: LPS-Stimulation of Human Whole Blood, TNF-α release; format: cell-based; settings: LPS 100 ng/ml, 6 hrs, read-out: Inhibitor activity versus human whole blood TNFα release
Method: LPS-Stimulation of Human Whole Blood
Whole blood was taken by venous puncture using heparinised vacutainers (Becton Dickinson) and diluted in an equal volume of RPMI1640 tissue culture media (Sigma). 100 μl was plated in V-bottomed 96 well tissue culture treated plates. 2 hrs after the addition of the inhibitor in 100 μl of RPMI1640 media, the blood was stimulated with LPS (E. coli strain 005:B5, Sigma) at a final concentration of 100 ng/ml and incubated at 37° C. in 5% CO2 for 6 hrs. TNF-α levels were measured from cell-free supernatants by sandwich ELISA (R&D Systems #QTA00B)

Row | SMILES | pIC50 (IKBKB (IKKβ)) | pIC50 (THP-1 cells) | pIC50 (human whole blood)
1 | C[C@@H](OC(C)(C)C)[C@H](NCCc1cccc(-c2cc(C(N)=O)c(NC(N)=O)s2)c1)C(=O)OC1CCCC1 [Example 21, Cyclopentyl O-tert-butyl-N-(2-{3-[4-carbamoyl-5-(carbamoylamino)-2-thienyl]phenyl}ethyl)-L-threoninate] |  |  | < 5.30
2 | C[C@@H](O)[C@H](NCc1cccc(-c2cc(C(N)=O)c(NC(N)=O)s2)c1)C(=O)OC1CCCC1 [Example 13, Cyclopentyl N-{3-[4-carbamoyl-5-(carbamoylamino)thiophen-2-yl]benzyl}-L-threoninate] | > 6.00 | > 6.00 | > 6.00
3 | CC(C)C[C@H](NCCc1cc(-c2cc(C(N)=O)c(NC(N)=O)s2)ccc1F)C(=O)OC1CCCC1 [Example 22, Cyclopentyl N-(2-{5-[4-carbamoyl-5-(carbamoylamino)thiophen-2-yl]-2-fluorophenyl}ethyl)-L-leucinate] | 5.30 to 6.00 | 5.30 to 6.00 | 5.30 to 6.00
4 | CC(C)(C)OC[C@H](NCc1cccc(-c2cc(C(N)=O)c(NC(N)=O)s2)c1)C(=O)OC1CCCC1 [Example 11, Cyclopentyl O-tert-butyl-N-{3-[4-carbamoyl-5-(carbamoylamino)thiophen-2-yl]benzyl}-L-serinate] | > 6.00 | 5.30 to 6.00 | 5.30 to 6.00
5 | C[C@@H](O)[C@H](NC/C=C/c1ccc(-c2cc(C(N)=O)c(NC(N)=O)s2)cc1)C(=O)OC1CCCC1 [Example 48, Cyclopentyl N-[(2E)-3-{4-[4-carbamoyl-5-(carbamoylamino)thiophen-2-yl]phenyl}prop-2-en-1-yl]-L-threoninate] |  |  | 5.30 to 6.00
6 | CC(C)(C)OC(=O)[C@@H](NC/C=C/c1ccc(-c2cc(C(N)=O)c(NC(N)=O)s2)cc1)C1CCCCC1 [Example 45, tert-butyl (2S)-{[(2E)-3-{4-[4-carbamoyl-5-(carbamoylamino)thiophen-2-yl]phenyl}prop-2-en-1-yl]amino}(cyclohexyl)ethanoate] | > 6.00 |  | < 5.30
7 | NC(=O)Nc1sc(-c2ccc(/C=C/CN[C@H](C(=O)OC3CCCC3)C3CCCCC3)cc2)cc1C(N)=O [Example 44, Cyclopentyl (2S)-{[(2E)-3-{4-[4-carbamoyl-5-(carbamoylamino)thiophen-2-yl]phenyl}prop-2-en-1-yl]amino}(cyclohexyl)ethanoate] | > 6.00 |  | < 5.30
8 | CC(C)[C@H](NCc1cccc(-c2cc(C(N)=O)c(NC(N)=O)s2)c1)C(=O)OC1CCCC1 [Example 15, Cyclopentyl N-{3-[4-carbamoyl-5-(carbamoylamino)thiophen-2-yl]benzyl}-L-valinate] |  |  | 5.30 to 6.00
9 | CC(C)C[C@H](NCCc1cc(-c2cc(C(N)=O)c(NC(N)=O)s2)ccc1Cl)C(=O)OC1CCCC1 [Example 24, Cyclopentyl N-(2-{5-[4-carbamoyl-5-(carbamoylamino)thiophen-2-yl]-2-chlorophenyl}ethyl)-L-leucinate] |  |  | < 5.30
10 | NC(=O)Nc1sc(-c2cccc(CN[C@@H](CO)C(=O)OC3CCCC3)c2)cc1C(N)=O [Example 12, Cyclopentyl N-{3-[4-carbamoyl-5-(carbamoylamino)thiophen-2-yl]benzyl}-L-serinate] | > 6.00 |  | > 6.00
11 | CC(C)C[C@H](NC/C=C/c1c(F)cc(-c2cc(C(N)=O)c(NC(N)=O)s2)cc1F)C(=O)OC1CCCC1 [Example 38, Cyclopentyl N-[(2E)-3-{4-[4-carbamoyl-5-(carbamoylamino)thiophen-2-yl]-2,6-difluorophenyl}prop-2-en-1-yl]-L-leucinate] | < 5.30 |  | 5.30 to 6.00
12 | CC(C)C[C@@H](NC/C=C/c1ccc(-c2cc(C(N)=O)c(NC(N)=O)s2)cc1)C(=O)OC1CCCC1 [Example 46, Cyclopentyl N-[(2E)-3-{4-[4-carbamoyl-5-(carbamoylamino)-2-thienyl]phenyl}prop-2-en-1-yl]-D-leucinate] | > 6.00 |  | 5.30 to 6.00
13 | Cc1ccc(-c2cc(C(N)=O)c(NC(N)=O)s2)cc1CCN[C@@H](CC(C)C)C(=O)OC1CCCC1 [Example 23, Cyclopentyl N-(2-{5-[4-carbamoyl-5-(carbamoylamino)thiophen-2-yl]-2-methylphenyl}ethyl)-L-leucinate] |  |  | < 5.30
14 | CC(C)(C)OC[C@H](NCCc1cccc(-c2cc(C(N)=O)c(NC(N)=O)s2)c1)C(=O)OC1CCCC1 [Example 20, Cyclopentyl O-tert-butyl-N-(2-{3-[4-carbamoyl-5-(carbamoylamino)-2-thienyl]phenyl}ethyl)-L-serinate] |  |  | 5.30 to 6.00

More lines, now with the values ahead:

Row | pIC50 (IKBKB (IKKβ)) | pIC50 (THP-1 cells) | pIC50 (human whole blood) | SMILES
15 | > 6.00 | > 6.00 | 5.30 to 6.00 | NC(=O)Nc1sc(-c2cccc(CN[C@H](C(=O)OC3CCCC3)c3ccccc3)c2)cc1C(N)=O [Example 9, Cyclopentyl (2S)-({3-[4-carbamoyl-5-(carbamoylamino)-2-thienyl]benzyl}amino)(phenyl)acetate]
16 | > 6.00 | > 6.00 | > 6.00 | NC(=O)Nc1sc(-c2cccc(CCN[C@H](C(=O)OC3CCCC3)c3ccccc3)c2)cc1C(N)=O [Example 19, Cyclopentyl (2S)-[(2-{3-[4-carbamoyl-5-(carbamoylamino)-2-thienyl]phenyl}ethyl)amino](phenyl)acetate]
17 | > 6.00 | 5.30 to 6.00 | 5.30 to 6.00 | NC(=O)Nc1sc(-c2ccc(/C=C/CN[C@H](C(=O)OC3CCCC3)c3ccccc3)cc2)cc1C(N)=O [Example 41, Cyclopentyl (2S)-{[(2E)-3-{4-[4-carbamoyl-5-(carbamoylamino)-2-thienyl]phenyl}prop-2-en-1-yl]amino}(phenyl)acetate]
18 |  |  | < 5.30 | C[C@@H](OC(C)(C)C)[C@H](NC/C=C/c1ccc(-c2cc(C(N)=O)c(NC(N)=O)s2)cc1)C(=O)OC1CCCC1 [Example 47, Cyclopentyl O-tert-butyl-N-[(2E)-3-{4-[4-carbamoyl-5-(carbamoylamino)thiophen-2-yl]phenyl}prop-2-en-1-yl]-L-threoninate]
19 | < 5.30 |  | 5.30 to 6.00 | CC(C)C[C@H](NC/C=C/c1ccc(-c2cc(C(N)=O)c(NC(N)=O)s2)c(C(F)(F)F)c1)C(=O)OC1CCCC1 [Example 39, Cyclopentyl N-[(2E)-3-{4-[4-carbamoyl-5-(carbamoylamino)thiophen-2-yl]-3-(trifluoromethyl)phenyl}prop-2-en-1-yl]-L-leucinate]
20 | > 6.00 |  | 5.30 to 6.00 | CC(C)(C)OC[C@H](NC/C=C/c1ccc(-c2cc(C(N)=O)c(NC(N)=O)s2)cc1)C(=O)OC1CCCC1 [Example 43, Cyclopentyl O-tert-butyl-N-[(2E)-3-{4-[4-carbamoyl-5-(carbamoylamino)thiophen-2-yl]phenyl}prop-2-en-1-yl]-L-serinate]
